Measured values from ChEMBL document CHEMBL1157388, “Recent developments in fragment-based drug discovery” (J Med Chem, 2008).

Tests used:
[1] = target: Urokinase-type plasminogen activator (Homo sapiens, UniProt P00749)
Caspase-1 = target: T1, Caspase-1 (Homo sapiens, UniProt P29466); assay: Inhibition of caspase 1
T1 sequence (P29466 whole entry): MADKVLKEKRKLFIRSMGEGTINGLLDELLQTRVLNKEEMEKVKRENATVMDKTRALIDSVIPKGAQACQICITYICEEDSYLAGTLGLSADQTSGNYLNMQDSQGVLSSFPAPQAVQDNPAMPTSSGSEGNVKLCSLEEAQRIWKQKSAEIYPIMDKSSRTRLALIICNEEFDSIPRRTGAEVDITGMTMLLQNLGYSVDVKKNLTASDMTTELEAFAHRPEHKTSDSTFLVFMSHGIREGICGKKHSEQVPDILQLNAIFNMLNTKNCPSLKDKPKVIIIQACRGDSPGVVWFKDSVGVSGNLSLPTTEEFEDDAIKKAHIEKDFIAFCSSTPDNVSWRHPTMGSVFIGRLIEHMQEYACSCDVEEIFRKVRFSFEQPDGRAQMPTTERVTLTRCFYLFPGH

Prothrombin = Prothrombin (Homo sapiens, UniProt P00734); assay: Inhibition of thrombin
Carbonic anhydrase 2 = Carbonic anhydrase 2 (Bos taurus, UniProt P00921)
Sequence of Carbonic anhydrase 2 (P00921 whole entry): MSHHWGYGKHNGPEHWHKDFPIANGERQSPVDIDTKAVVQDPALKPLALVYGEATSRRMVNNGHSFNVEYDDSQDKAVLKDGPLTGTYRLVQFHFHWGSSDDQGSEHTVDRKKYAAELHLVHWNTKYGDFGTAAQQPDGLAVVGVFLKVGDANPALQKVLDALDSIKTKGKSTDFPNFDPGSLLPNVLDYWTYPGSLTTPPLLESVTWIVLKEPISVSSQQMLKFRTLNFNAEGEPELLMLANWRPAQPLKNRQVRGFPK

[2] = target: RAC-alpha serine/threonine-protein kinase (Homo sapiens, UniProt P31749); assay: Inhibition of protein kinase B
Sequence of RAC-alpha serine/threonine-protein kinase (P31749 whole entry): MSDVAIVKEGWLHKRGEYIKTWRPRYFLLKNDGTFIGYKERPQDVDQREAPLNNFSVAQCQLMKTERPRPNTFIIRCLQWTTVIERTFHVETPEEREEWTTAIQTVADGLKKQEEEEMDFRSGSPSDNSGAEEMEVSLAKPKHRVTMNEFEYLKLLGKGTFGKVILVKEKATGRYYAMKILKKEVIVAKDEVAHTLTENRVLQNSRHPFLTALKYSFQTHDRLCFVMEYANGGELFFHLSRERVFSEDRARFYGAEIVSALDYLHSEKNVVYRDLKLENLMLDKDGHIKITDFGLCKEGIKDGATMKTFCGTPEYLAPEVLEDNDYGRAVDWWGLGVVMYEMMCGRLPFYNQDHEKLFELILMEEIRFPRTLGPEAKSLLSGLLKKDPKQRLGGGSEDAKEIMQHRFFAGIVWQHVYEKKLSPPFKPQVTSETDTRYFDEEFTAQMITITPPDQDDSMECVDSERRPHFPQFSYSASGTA

Aurora kinase A = target: T2, Aurora kinase A (Homo sapiens, UniProt O14965)
T2 sequence (O14965 whole entry): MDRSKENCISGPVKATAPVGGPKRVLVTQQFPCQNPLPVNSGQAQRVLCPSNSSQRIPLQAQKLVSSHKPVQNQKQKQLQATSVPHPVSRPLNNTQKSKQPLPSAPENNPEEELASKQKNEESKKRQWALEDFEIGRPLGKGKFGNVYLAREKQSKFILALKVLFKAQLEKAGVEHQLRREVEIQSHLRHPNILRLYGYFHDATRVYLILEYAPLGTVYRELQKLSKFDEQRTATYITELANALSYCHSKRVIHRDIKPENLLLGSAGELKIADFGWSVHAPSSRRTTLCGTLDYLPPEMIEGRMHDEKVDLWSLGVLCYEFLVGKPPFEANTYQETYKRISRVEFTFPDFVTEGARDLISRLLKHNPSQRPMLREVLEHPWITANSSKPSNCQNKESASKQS

[3] = target: Heat shock protein HSP 90-beta (Homo sapiens, UniProt P08238)
Sequence of Heat shock protein HSP 90-beta (P08238 whole entry): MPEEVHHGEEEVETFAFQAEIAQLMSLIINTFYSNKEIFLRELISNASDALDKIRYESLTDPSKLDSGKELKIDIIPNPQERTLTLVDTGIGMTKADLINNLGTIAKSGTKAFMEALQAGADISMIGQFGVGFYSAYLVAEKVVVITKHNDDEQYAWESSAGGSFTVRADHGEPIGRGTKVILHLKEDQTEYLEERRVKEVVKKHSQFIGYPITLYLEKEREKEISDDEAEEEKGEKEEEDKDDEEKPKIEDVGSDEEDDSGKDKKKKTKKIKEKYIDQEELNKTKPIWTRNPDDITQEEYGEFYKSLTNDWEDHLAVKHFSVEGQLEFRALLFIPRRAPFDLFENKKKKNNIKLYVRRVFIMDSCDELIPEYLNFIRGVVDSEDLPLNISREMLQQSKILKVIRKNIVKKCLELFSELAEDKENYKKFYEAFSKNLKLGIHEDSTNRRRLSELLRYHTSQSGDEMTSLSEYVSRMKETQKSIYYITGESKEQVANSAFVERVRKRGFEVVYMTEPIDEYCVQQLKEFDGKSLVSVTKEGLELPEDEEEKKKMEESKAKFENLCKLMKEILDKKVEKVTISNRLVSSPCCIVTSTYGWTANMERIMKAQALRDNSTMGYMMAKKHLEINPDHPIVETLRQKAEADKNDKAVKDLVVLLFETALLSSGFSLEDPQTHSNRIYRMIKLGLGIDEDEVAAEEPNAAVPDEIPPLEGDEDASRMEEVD

[4] = target: T3, Queuine tRNA-ribosyltransferase catalytic subunit 1 (Homo sapiens, UniProt Q9BXR0)
T3 sequence (Q9BXR0 whole entry): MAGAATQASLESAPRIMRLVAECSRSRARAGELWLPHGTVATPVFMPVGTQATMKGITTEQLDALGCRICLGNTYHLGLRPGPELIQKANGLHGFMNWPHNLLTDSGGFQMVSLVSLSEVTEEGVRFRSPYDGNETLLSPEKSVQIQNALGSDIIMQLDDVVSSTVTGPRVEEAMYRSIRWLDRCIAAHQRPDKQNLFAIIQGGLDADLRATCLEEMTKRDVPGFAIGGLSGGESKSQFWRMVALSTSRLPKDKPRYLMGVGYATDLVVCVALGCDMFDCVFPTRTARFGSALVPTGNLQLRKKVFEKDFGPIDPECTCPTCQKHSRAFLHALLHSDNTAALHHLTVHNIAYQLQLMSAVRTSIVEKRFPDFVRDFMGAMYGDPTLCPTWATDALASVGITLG

[5] = Inhibition of PDE4

For `Nc1nc2cc(O)ccc2[nH]1`, the IC50 [1] was 200000 nM.

`O=C[C@H](CC(=O)O)NC(=O)c1ccc(CNC(=O)c2ccc(Nc3cnc4ccccc4n3)cc2)nc1` gave an IC50 (Caspase-1) of 5 nM.

For `COc1ccc(S(=O)(=O)NC[C@@H](O)[C@H](Cc2ccccc2)NCc2cc(Cl)ccc2-n2cnnn2)cc1`, the IC50 (Prothrombin) was 4 nM.

`C#Cc1ccc(S(N)(=O)=O)cc1` gave a Kd (Carbonic anhydrase 2) of 37 nM.

For `O=C[C@H](CC(=O)O)NC(=O)CCCCCNC(=O)c1ccc(Nc2cnc3ccccc3n2)cc1`, the IC50 (Caspase-1) was 190 nM.

For `c1ccc(-c2cn[nH]c2)cc1`, the IC50 [2] was 135000 nM.

In the case of `COc1cc2[nH]c3ncnc(N4CCN(C(=S)Nc5ccc(S(=O)(=O)Nc6ncccn6)cc5)CC4)c3c2cc1OC`, the IC50 (Aurora kinase A) is reported as 94 nM.

For `COc1cc2[nH]c3ncnc(Cl)c3c2cc1OC`, the IC50 (Aurora kinase A) was 3000 nM.

Work on `O=C1OCC/C1=C\Nc1ccccc1` yielded a Kd [3] of 150000 nM.

`COc1ccc(CCc2c3nc[nH]c3cc3c(=O)[nH]c(N)nc23)cc1` gave a Ki [4] of 3700 nM.

`CC(C)[C@@H](C(=O)N1CC2CCC(CC2)C1)n1cc(-c2ccc(S(N)(=O)=O)cc2)nn1` gave a Kd (Carbonic anhydrase 2) of 0.2 nM.

Work on `Cc1cc(C#Cc2ccccc2/C=N/N2CCOC2=O)nc(N)n1` yielded a Kd [3] of 4000 nM.

In the case of `CCOC(=O)c1c(C)nn(-c2ccccc2Cl)c1C`, the IC50 [5] is reported as 19 nM.

In the case of `Nc1nc2ccccc2c(=O)[nH]1`, the Ki [4] is reported as 2100 nM.

In the case of `Nc1ccc(S(=O)(=O)Nc2ncccn2)cc1` [SULFADIAZINE], the IC50 (Aurora kinase A) is reported as 21000 nM.
